Drawing on PMC10353187, “Discovery of a new potent oxindole multi-kinase inhibitor among a series of designed 3-alkenyl-oxindoles with ancillary carbonic anhydrase inhibitory activity as antiproliferative agents” (BMC Chemistry, 2023), this text covers inhibition for one molecule.

Broadly, the inhibition is the percentage by which the read-out fell short of the control.

SMILES strings stand for the structures.

What all share (assay): Z'-LYTE kinase inhibition assay (SelectScreen)
Holding throughout (type): biochemical

One experiment concerns the target T1, BRAF (Homo sapiens, UniProt P15056).
T1 construct: purchased Thermo Fischer Scientific (SelectScreen service)
On the procedure:
(§1) To test the potential kinase inhibitory activity of compound 15c, initial single dose testing was performed at 10 μM on a panel of kinases and their inhibition % were determined.
(§2) The FGFR, VEGFR-2 and RET tyrosine kinase assays were carried out at Thermo Fischer Scientific, USA (www.thermofischer.com/selectscreen). (For further details see Additional file 1; S3: In vitro biological activity).
(§3) The FGFR, VEGFR-2 and RET tyrosine kinase assays were performed at Thermo Fischer Scientific, USA (www.thermofischer.com/selectscreen). The assay was performed to evaluate the inhibitory activity of the designed compound applying the Z'-LYTE biochemical assay employing a fluorescence-based, coupled-enzyme format based on the differential sensitivity of phosphorylate and non-phosphorylate peptides to the proteolytic cleavage. The peptide substrate is characterized with two fluorophores, one at each end, that make up a FRET pair ^9.
(§4) The Z´-LYTE biochemical assay employs a fluorescence-based, coupled-enzyme format and is based on the differential sensitivity of phosphorylated and non-phosphorylated peptides to proteolytic cleavage. The peptide substrate is labeled with two fluorophores—one at each end—that make up a FRET pair. In the primary reaction, the kinase transfers the gamma-phosphate of ATP to a single tyrosine, serine or threonine residue in a synthetic FRET-peptide. In the secondary reaction, a site-specific protease recognizes and cleaves non-phosphorylated FRET-peptides. Phosphorylation of FRET-peptides suppresses cleavage by the Development Reagent. Cleavage disrupts FRET between the donor (i.e., coumarin) and acceptor (i.e., fluorescein) fluorophores on the FRET-peptide, whereas uncleaved, phosphorylated FRET-peptides maintain FRET. A ratiometric method, which calculates the ratio (the Emission Ratio) of donor emission to acceptor emission after excitation of the donor fluorophore at 400 nm, is used to quantitate reaction progress, as shown in the equation below. A significant benefit of this ratiometric method for quantitating reaction progress is the elimination of wellto-well variations in FRET-peptide concentration and signal intensities. […]. Both cleaved and uncleaved FRET-peptides contribute to the fluorescence signals and therefore to the Emission Ratio. The extent of phosphorylation of the FRET-peptide can be calculated from the Emission Ratio. The Emission Ratio will remain low if the FRET-peptide is phosphorylated (i.e., no kinase inhibition) and will be high if the FRET-peptide is non-phosphorylated (i.e., kinase inhibition).
(§5) Test Compounds the Test Compounds are screened in 1% DMSO (final) in the well. For 10 point titrations, 3-fold serial dilutions are conducted from the starting concentration of the customer’s choosing. Peptide/Kinase Mixtures All Peptide/Kinase Mixtures are diluted to a 2X working concentration in the appropriate Kinase Buffer (see section Kinase Specific Assay Conditions for a complete description). ATP Solution All ATP Solutions are diluted to a 4X working concentration in Kinase Buffer (50 mM HEPES pH 7.5, 0.01% BRIJ-35, 10 mM MgCl2, 1 mM EGTA). ATP Km apparent is previously determined using a Z´-LYTE assay.

Another experiment addresses T2, PDGFRA (PDGFR alpha) (Homo sapiens, UniProt P16234).
T2 construct: purchased Thermo Fischer Scientific (SelectScreen service)
On the procedure:
as §1, §2, §3, §4, §5

The next experiment concerns the target T3, VEGFR 1(FLT1) (Homo sapiens, UniProt P17948).
T3 construct: purchased Thermo Fischer Scientific (SelectScreen service)
The procedure:
as §1, §2, §3, §4, §5

Another experiment addresses T4, c-Met (Homo sapiens, UniProt P08581).
T4 construct: purchased Thermo Fischer Scientific (SelectScreen service)
On the procedure: as §1, §2, §3, §4, §5

T4 sequence (P08581 25-1390): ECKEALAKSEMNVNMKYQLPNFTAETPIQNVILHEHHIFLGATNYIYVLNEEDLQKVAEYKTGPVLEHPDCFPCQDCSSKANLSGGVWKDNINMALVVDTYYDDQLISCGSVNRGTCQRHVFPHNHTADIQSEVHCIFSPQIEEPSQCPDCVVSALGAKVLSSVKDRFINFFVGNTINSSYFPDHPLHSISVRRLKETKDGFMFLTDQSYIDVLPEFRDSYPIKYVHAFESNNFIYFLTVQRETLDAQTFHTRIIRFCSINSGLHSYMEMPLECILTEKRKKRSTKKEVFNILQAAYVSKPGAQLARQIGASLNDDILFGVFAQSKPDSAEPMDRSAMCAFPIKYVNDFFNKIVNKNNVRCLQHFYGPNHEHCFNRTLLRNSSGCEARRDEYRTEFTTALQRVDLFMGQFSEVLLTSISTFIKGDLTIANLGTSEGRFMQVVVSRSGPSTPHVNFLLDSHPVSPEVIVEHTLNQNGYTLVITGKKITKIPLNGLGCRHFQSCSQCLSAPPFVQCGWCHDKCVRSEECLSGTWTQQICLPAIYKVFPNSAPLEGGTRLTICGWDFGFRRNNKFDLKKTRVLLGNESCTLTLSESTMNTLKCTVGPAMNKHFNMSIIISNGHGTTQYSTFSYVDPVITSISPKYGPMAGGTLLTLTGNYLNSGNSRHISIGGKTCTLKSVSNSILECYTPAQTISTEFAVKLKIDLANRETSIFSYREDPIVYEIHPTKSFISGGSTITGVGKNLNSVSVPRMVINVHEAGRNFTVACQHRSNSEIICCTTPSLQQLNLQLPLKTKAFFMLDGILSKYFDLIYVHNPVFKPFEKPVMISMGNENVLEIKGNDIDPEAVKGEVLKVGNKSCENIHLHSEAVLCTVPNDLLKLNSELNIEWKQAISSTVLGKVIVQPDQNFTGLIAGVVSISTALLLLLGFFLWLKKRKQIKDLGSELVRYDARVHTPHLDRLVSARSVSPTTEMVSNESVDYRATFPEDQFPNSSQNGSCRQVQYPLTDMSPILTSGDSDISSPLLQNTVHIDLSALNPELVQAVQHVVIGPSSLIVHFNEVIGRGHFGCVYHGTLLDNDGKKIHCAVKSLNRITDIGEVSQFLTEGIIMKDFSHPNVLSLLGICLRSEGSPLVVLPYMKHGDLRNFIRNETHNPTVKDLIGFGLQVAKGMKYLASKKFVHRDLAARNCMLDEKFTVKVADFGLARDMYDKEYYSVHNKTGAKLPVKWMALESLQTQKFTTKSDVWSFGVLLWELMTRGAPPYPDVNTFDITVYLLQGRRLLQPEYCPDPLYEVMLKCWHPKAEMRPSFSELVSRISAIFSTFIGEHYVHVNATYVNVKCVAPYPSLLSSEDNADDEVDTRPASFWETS
T1 sequence (P15056 whole entry): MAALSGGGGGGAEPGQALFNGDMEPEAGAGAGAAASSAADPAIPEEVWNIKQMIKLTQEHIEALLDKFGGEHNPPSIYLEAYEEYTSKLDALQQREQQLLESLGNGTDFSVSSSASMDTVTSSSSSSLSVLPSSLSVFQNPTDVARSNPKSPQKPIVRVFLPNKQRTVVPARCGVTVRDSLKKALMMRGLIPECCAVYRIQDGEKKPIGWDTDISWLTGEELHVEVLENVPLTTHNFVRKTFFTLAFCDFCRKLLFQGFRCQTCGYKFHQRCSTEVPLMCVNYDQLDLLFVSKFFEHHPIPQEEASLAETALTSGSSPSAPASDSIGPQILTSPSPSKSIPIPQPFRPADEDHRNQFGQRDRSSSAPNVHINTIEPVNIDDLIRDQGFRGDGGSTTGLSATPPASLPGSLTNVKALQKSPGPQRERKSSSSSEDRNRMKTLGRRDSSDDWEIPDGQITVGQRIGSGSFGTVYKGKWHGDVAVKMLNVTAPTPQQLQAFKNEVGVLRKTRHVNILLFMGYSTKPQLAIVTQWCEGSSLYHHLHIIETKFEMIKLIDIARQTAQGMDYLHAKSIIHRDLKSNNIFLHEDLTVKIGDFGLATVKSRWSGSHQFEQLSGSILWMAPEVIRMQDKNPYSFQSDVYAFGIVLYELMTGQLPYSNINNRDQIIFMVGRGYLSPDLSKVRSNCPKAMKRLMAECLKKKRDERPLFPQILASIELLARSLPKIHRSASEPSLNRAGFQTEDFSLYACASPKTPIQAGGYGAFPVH
T2 sequence (P16234 24-1089): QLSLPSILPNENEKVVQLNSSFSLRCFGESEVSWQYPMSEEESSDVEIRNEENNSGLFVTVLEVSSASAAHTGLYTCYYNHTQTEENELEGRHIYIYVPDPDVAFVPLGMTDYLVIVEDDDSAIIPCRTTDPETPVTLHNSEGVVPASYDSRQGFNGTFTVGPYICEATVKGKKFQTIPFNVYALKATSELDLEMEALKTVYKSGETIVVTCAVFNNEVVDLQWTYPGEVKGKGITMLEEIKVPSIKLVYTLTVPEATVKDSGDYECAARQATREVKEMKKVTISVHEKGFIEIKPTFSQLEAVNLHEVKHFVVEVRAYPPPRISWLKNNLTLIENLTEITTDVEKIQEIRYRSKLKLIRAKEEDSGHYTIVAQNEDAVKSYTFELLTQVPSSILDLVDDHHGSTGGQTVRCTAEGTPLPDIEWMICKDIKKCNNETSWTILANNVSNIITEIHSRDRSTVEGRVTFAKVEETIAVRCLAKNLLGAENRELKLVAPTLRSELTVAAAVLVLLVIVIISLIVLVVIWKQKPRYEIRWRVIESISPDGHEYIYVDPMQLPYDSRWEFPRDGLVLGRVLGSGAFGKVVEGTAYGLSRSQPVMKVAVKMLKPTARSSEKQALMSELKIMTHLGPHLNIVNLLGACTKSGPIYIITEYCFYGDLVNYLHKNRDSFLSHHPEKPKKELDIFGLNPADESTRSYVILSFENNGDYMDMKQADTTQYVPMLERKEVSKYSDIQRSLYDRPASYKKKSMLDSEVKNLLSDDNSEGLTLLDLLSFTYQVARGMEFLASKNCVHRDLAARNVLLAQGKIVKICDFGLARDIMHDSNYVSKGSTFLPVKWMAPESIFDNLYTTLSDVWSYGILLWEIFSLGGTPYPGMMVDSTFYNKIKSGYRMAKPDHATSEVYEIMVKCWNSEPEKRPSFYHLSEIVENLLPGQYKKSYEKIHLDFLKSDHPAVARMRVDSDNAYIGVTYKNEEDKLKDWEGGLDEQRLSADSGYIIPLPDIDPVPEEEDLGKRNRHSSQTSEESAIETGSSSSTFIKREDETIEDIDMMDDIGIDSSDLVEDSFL
T3 sequence (P17948 27-1338): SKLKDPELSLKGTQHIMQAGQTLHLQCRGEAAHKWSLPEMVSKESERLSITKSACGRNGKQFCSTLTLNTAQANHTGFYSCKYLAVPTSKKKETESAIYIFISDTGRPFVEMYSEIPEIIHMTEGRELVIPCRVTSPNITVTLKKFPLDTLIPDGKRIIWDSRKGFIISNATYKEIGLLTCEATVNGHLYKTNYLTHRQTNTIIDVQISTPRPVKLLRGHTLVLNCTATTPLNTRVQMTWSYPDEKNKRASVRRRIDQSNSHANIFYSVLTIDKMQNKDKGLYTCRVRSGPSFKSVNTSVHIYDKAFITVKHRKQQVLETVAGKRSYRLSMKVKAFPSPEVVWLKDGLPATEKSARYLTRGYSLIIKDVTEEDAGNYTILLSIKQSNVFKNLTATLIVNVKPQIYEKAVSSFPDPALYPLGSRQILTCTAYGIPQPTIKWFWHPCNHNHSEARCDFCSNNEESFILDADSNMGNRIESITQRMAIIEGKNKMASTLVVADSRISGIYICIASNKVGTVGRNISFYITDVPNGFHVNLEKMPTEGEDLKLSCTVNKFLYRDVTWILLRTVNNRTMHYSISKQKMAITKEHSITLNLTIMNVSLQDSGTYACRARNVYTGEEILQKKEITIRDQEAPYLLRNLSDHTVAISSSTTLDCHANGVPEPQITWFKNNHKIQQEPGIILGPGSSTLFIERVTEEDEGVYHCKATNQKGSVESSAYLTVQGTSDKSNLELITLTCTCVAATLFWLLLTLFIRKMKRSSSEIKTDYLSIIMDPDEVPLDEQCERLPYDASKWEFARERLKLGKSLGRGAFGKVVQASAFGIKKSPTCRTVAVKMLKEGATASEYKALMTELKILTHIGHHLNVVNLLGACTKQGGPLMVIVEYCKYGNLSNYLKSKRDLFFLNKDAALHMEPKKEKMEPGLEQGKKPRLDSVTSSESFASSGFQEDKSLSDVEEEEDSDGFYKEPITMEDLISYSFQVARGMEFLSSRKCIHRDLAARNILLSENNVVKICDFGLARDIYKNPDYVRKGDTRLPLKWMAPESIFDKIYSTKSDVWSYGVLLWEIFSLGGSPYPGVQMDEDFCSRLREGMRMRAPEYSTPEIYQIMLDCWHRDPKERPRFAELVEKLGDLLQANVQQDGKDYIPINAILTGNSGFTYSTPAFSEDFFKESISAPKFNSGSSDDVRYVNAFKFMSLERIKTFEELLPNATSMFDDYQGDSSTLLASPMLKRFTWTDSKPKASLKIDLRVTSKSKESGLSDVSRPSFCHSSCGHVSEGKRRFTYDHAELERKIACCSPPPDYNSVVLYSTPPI

Turning to `O=C(Nc1ccc(NC=C2C(=O)Nc3ccccc32)cc1)Nc1nccs1` [Compound 15c, 1-{4-[((2-Oxoindolin-3-ylidene)methyl)amino]phenyl}-3-(thiazol-2-yl)urea], the inhibition at 10 µM came out at 69% at BRAF, 59% against PDGFRA (PDGFR alpha), 40% at VEGFR 1(FLT1) and 62% on c-Met.
